PMC10535624, “Curcuminoid Chalcones: Synthesis, Stability, and New Neuroprotective and Sonosensitising Activities” (Pharmaceuticals, 2023)
“And” between values parts separate entries of the source, which are not always exact repeats. Equal entries are not always repeated.

Columns and labels:
[1] = tested on: SOD2 gene; design: method as in PMID 37779412; conditions: qRT-PCR ref 35; cited from earlier work
[2] = target: T1, catalase (CAT) (Aspergillus niger, UniProt P55303); assay: Effect on CAT activity; type: biochemical; conditions: samples 3 mM/dm^3 in DMSO, 0.01 mL; mean ± SEM, n = 3
T1 construct: purchased Sigma C3515
Procedure: The samples were dissolved in DMSO (Sigma D4540) to obtain a concentration of 3 mM/dm^3.
The method used by Watanabe et al. was used with the following modifications. The reaction mixture was composed of 0.02 mL of EDTA solution (56.5 mM), 0.01 mL of ^the sample, 0.02 mL of 3% H2O2 solution (Sigma H1009), and 0.02 mL of catalase solution (4000-fold diluted, Sigma C3515) (all reagents except the tested sample were diluted in TRIS buffer, pH 7.0, 1 mol/dm^3). The volume was completed to 0.31 mL by the same buffer solution. In a blank sample, DMSO (Sigma D4540) replaced the tested sample. The background of the sample was measured in a mixture composed of 0.01 mL of the sample completed to 0.31 mL by the buffer. The absorbance was read at 240 nm directly after the mixing and after 5 min of incubation (room temperature). The decreased absorbance (depletion of H2O2) in the tested and blank samples was compared. The calibration curve was produced using eleven H2O2 solutions (0.5693–5.693 mM/dm^3). The results are expressed in % inhibition and as H2O2 depletion (mmol of depleted H2O2/dm^3 min).

[3] = Stress test: oxidative degradation (RP-HPLC); type: physicochemical; conditions: for ICH Classification: oxidising environment
Procedure: Stock solutions of the test substances (2 or 6) were prepared by dissolving 1 mg of each test substance in 1.5 mL of a mixture of DMSO and MeOH (1:6, v/v). Then, 2 mL solutions of compounds 2 and 6 were prepared at ~30 μg/mL in a hydrogen peroxide solution (1, 3, and 10%). The solutions were placed in dark glass vials and encapsulated, and after an appropriate time (Table 1) the samples were diluted with methanol (1:1, v/v) and transferred to the chromatographic column.

[4] = Stress test: strong acid, strong base and neutral degradation (RP-HPLC); type: physicochemical
Procedure: Several tests were conducted using the ICH guidelines to assess the compound’s stability. In the stress test, two structural isomers of ester-type hybrid compounds were chosen to estimate the structure’s relationship to the compound’s stability. The tested substances were subjected to hydrolysis–solvolysis in neutral, acidic, and alkaline media. As solvents, water, hydrochloric acid, and sodium hydroxide were used in appropriate concentrations.
Reversed-phase HPLC was used to analyse the degree of degradation. Chromatograms were developed with DAD detection at 254 nm, 308 nm (λmax for 2), and 340 nm (λmax for 6). […] .
Then, 2.0 mL samples of the tested solutions (c ~60 µg/mL) were prepared in hydrochloric acid (0.1; 0.01 M) or sodium hydroxide solution (0.1, 0.01 M) and demineralised water. The solutions were transferred to glass vials, encapsulated, and stored in a thermal chamber at 90 °C, 40 °C, or 25 °C. After the appropriate time (Table 1), the samples were cooled, diluted with methanol (1:1), and transferred to the chromatography column.

[5] = tested on: SCC-25 cells; assay: Sonodynamic cytotoxicity, MTT test; type: cell-based, human; conditions: 40 µM, 8 h, then US 3 min, 3 MHz, 0.8 W/cm^2; MTT 6 h later; compared to untreated cells
[6] = acidic environment, HCl 0.01 M, 40 °C, 8 h
[7] = alkaline environment, NaOH 0.01 M, 25 °C, 2 h
[8] = neutral environment, H2O, 90 °C, 24 h

T1 sequence (P55303 whole entry): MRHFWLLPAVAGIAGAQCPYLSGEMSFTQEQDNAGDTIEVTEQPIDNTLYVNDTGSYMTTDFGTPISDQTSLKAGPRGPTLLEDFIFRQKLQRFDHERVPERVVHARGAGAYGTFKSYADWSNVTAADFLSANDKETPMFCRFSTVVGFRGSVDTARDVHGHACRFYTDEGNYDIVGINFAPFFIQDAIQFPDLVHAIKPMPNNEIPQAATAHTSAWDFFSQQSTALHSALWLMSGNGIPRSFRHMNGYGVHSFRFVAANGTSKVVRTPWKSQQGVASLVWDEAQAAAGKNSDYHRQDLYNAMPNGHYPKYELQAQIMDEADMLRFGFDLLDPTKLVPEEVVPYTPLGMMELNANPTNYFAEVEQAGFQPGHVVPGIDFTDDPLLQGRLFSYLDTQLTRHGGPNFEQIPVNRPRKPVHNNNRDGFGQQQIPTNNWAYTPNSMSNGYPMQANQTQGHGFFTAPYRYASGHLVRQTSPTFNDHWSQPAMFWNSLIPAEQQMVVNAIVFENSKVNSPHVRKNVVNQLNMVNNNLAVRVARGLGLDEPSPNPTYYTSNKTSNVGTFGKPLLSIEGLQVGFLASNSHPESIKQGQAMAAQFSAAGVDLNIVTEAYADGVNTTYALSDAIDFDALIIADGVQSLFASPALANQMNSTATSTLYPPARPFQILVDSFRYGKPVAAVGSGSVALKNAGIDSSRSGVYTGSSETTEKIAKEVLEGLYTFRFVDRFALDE

Structure (SMILES) | % Decomposition ([3]; H2O2 1%, 30 min) | Ct ([3]; H2O2 1%, 30 min) | % Decomposition ([3]; H2O2 3%, 24 h) | Ct ([3]; H2O2 3%, 24 h) | % Decomposition ([3]; H2O2 10%, 24 h) | Ct ([3]; H2O2 10%, 24 h) | ICH Classification ([3]; H2O2 10%, 24 h) | % Decomposition ([4]; H2O, 90 °C, 24 h) | Ct ([4]; H2O, 90 °C, 24 h) | % Decomposition ([4]; HCl 0.01 M, 40 °C, 8 h) | Ct ([4]; HCl 0.01 M, 40 °C, 8 h) | % Decomposition ([4]; HCl 0.1 M, 90 °C, 16 h) | Ct ([4]; HCl 0.1 M, 90 °C, 16 h) | % Decomposition ([4]; NaOH 0.01 M, 25 °C, 2 h) | Ct ([4]; NaOH 0.01 M, 25 °C, 2 h) | % Decomposition ([4]; NaOH 0.1 M, 90 °C, 16 h) | Ct ([4]; NaOH 0.1 M, 90 °C, 16 h) | ICH Classification [4, 6] | ICH Classification [4, 7] | ICH Classification [4, 8] | further results
COc1ccc(C=CC(=O)c2ccccc2)cc1OC(=O)C(C)c1ccc(CC(C)C)cc1 (centres unmarked) [Compound 6, 2-Methoxy-5-(3-oxo-3-phenylprop-1-en-1-yl)phenyl-2-(4-isobutylphenyl)-propionate] | <0.5% | 29.7 µg/mL | <0.5% | 29.9 µg/mL | <0.5% | 30.0 µg/mL | practically stable | 23.9% | 50.9 µg/mL | 18% and 17.8% | 49.3 µg/mL | 97.8% | 1.5 µg/mL | 100% | 0 µg/mL | 100% | 0 µg/mL | very unstable | extremely unstable | unstable | Decrease of expression of the SOD2 gene compared to the control [1]: 65.20%; CAT Inhibition (%) [2]: 41.9 ± 1.2%; CAT Inhibition of the H2O2 Depletion [2]: 0.15 ± 0.01 mm/dm^3/min
COc1cc(C=CC(=O)c2ccccc2)ccc1OC(=O)C(C)c1ccc(CC(C)C)cc1 (centres unmarked) [Compound 2, 2-Methoxy-4-(3-oxo-3-phenylprop-1-en-1-yl)phenyl-2-(4-isobutylphenyl)-propionate] | <0.5% | 29.9 µg/mL | <0.5% | 29.8 µg/mL | <0.5% | 30.1 µg/mL | practically stable | 24.4% | 46.3 µg/mL | 44% and 43.8% | 33.7 µg/mL | 91.8% | 5.0 µg/mL | 100% | 0 µg/mL | 100% | 0 µg/mL | very unstable | extremely unstable | unstable | Reduction of viability of SCC-25 cells, compound combined with US [5]: significantly reduced viability
